Measurements from PubChem BioAssay (NCI).
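At the GI50, growth is halved. The concentration for full growth arrest is given as TGI.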

Assays:
Assay in all cases: NCI anticancer screen, dose series, 384-well format
786-0 renal = tested on: 786-0 renal
A498 renal = tested on: A498 renal
A549 NSCLC = tested on: A549 NSCLC
ACHN renal = tested on: ACHN renal
BT-549 breast = tested on: BT-549 breast
CAKI-1 renal = tested on: CAKI-1 renal
CCRF-CEM leukemia = tested on: CCRF-CEM leukemia
COLO 205 colon = tested on: COLO 205 colon
DU-145 prostate = tested on: DU-145 prostate
EKVX NSCLC = tested on: EKVX NSCLC
HCC-2998 colon = tested on: HCC-2998 colon
HCT-15 colon = tested on: HCT-15 colon
HL-60(TB) leukemia = tested on: HL-60(TB) leukemia
HOP-62 NSCLC = tested on: HOP-62 NSCLC
HOP-92 NSCLC = tested on: HOP-92 NSCLC
HS 578T breast = tested on: HS 578T breast
HT29 colon = tested on: HT29 colon
IGROV1 ovarian = tested on: IGROV1 ovarian
K-562 leukemia = tested on: K-562 leukemia
KM12 colon = tested on: KM12 colon
LOX IMVI melanoma = tested on: LOX IMVI melanoma
M14 melanoma = tested on: M14 melanoma
MALME-3M melanoma = tested on: MALME-3M melanoma
MCF7 breast = tested on: MCF7 breast
MDA-MB-231 breast = tested on: MDA-MB-231 breast
MDA-MB-435 melanoma = tested on: MDA-MB-435 melanoma
MDA-MB-468 breast = tested on: MDA-MB-468 breast
MOLT-4 leukemia = tested on: MOLT-4 leukemia
NCI-H226 lung = tested on: NCI-H226 lung
NCI-H23 lung = tested on: NCI-H23 lung
NCI-H322M lung = tested on: NCI-H322M lung
NCI-H460 NSCLC = tested on: NCI-H460 NSCLC
NCI-H522 lung = tested on: NCI-H522 lung
NCI/ADR-RES ovarian = tested on: NCI/ADR-RES ovarian
OVCAR-3 ovarian = tested on: OVCAR-3 ovarian
OVCAR-4 ovarian = tested on: OVCAR-4 ovarian
OVCAR-5 ovarian = tested on: OVCAR-5 ovarian
OVCAR-8 ovarian = tested on: OVCAR-8 ovarian
PC-3 prostate = tested on: PC-3 prostate
RPMI-8226 leukemia = tested on: RPMI-8226 leukemia
RXF 393 renal = tested on: RXF 393 renal
SF-268 CNS = tested on: SF-268 CNS
SF-295 CNS = tested on: SF-295 CNS
SF-539 CNS = tested on: SF-539 CNS
SK-MEL-28 melanoma = tested on: SK-MEL-28 melanoma
SK-MEL-5 melanoma = tested on: SK-MEL-5 melanoma
SK-OV-3 ovarian = tested on: SK-OV-3 ovarian
SN12C renal = tested on: SN12C renal
SNB-19 CNS = tested on: SNB-19 CNS
SNB-75 CNS = tested on: SNB-75 CNS
SR leukemia = tested on: SR leukemia
SW-620 colon = tested on: SW-620 colon
T-47D breast = tested on: T-47D breast
TK-10 renal = tested on: TK-10 renal
U251 glioblastoma = tested on: U251 glioblastoma
UACC-257 melanoma = tested on: UACC-257 melanoma
UACC-62 melanoma = tested on: UACC-62 melanoma
UO-31 renal = tested on: UO-31 renal
HCT-116 colon = tested on: HCT-116 colon

## CN(C)CCOc1ccc(-c2nc(-c3ccc4c(c3)CC/C4=N\O)c(-c3ccncc3)[nH]2)cc1
786-0 renal
  GI50: 1790 nM
  TGI: 3200 nM
A498 renal
  GI50: 1880 nM
  TGI: 3310 nM
A549 NSCLC
  GI50: 1990 nM
  TGI: 4020 nM
ACHN renal
  GI50: 2140 nM
  TGI: 4320 nM
BT-549 breast
  GI50: 1960 nM
  TGI: 3390 nM
CAKI-1 renal
  GI50: 1980 nM
  TGI: 3430 nM
CCRF-CEM leukemia
  GI50: 1880 nM
  TGI: 3290 nM
COLO 205 colon
  GI50: 20.3 nM
  TGI: 1130 nM
DU-145 prostate
  GI50: 3090 nM
  TGI: 9610 nM
EKVX NSCLC
  GI50: 1890 nM
  TGI: 3430 nM
HCC-2998 colon
  GI50: 1690 nM
  TGI: 3080 nM
HCT-15 colon
  GI50: 2450 nM
  TGI: 6460 nM
HL-60(TB) leukemia
  GI50: 941 nM
  TGI: 2090 nM
HOP-62 NSCLC
  GI50: 1850 nM
  TGI: 3260 nM
HOP-92 NSCLC
  GI50: 1740 nM
  TGI: 3120 nM
HS 578T breast
  GI50: 1880 nM
  TGI: 3290 nM
HT29 colon
  GI50: 555 nM
  TGI: 2060 nM
IGROV1 ovarian
  GI50: 13100 nM
  TGI: 25900 nM
K-562 leukemia
  GI50: 1970 nM
  TGI: 3430 nM
KM12 colon
  GI50: 1900 nM
  TGI: 3330 nM
LOX IMVI melanoma
  GI50: 963 nM
  TGI: 2160 nM
M14 melanoma
  GI50: 33.4 nM
  TGI: 839 nM
MALME-3M melanoma
  GI50: 10.6 nM
  TGI: 34.2 nM
MCF7 breast
  GI50: 1460 nM
  TGI: 2810 nM
MDA-MB-231 breast
  GI50: 1150 nM
  TGI: 2370 nM
MDA-MB-435 melanoma
  GI50: 58.9 nM
  TGI: 1600 nM
MDA-MB-468 breast
  GI50: 2140 nM
  TGI: 3580 nM
MOLT-4 leukemia
  GI50: 2150 nM
  TGI: 3600 nM
NCI-H226 lung
  GI50: 2320 nM
  TGI: 3780 nM
NCI-H23 lung
  GI50: 1380 nM
  TGI: 2860 nM
NCI-H322M lung
  GI50: 1850 nM
  TGI: 3510 nM
NCI-H460 NSCLC
  GI50: 1890 nM
  TGI: 3380 nM
NCI-H522 lung
  GI50: 1590 nM
  TGI: 2950 nM
NCI/ADR-RES ovarian
  GI50: 21900 nM
  TGI: 58300 nM
OVCAR-3 ovarian
  GI50: 2070 nM
  TGI: 3520 nM
OVCAR-4 ovarian
  GI50: 2680 nM
  TGI: 4170 nM
OVCAR-5 ovarian
  GI50: 1860 nM
  TGI: 3320 nM
OVCAR-8 ovarian
  GI50: 1890 nM
  TGI: 3320 nM
PC-3 prostate
  GI50: 1780 nM
  TGI: 3270 nM
RPMI-8226 leukemia
  GI50: 1900 nM
  TGI: 3360 nM
RXF 393 renal
  GI50: 1680 nM
  TGI: 3050 nM
SF-268 CNS
  GI50: 1810 nM
  TGI: 3220 nM
SF-295 CNS
  GI50: 7010 nM
  TGI: 19100 nM
SF-539 CNS
  GI50: 2140 nM
  TGI: 3600 nM
SK-MEL-28 melanoma
  GI50: 27.7 nM
  TGI: 198 nM
SK-MEL-5 melanoma
  GI50: 130 nM
  TGI: 1570 nM
SK-OV-3 ovarian
  GI50: 1790 nM
  TGI: 3190 nM
SN12C renal
  GI50: 14200 nM
  TGI: 27300 nM
SNB-19 CNS
  GI50: 2070 nM
  TGI: 4060 nM
SNB-75 CNS
  GI50: 2070 nM
  TGI: 3510 nM
SR leukemia
  GI50: 1710 nM
  TGI: 3090 nM
SW-620 colon
  GI50: 2360 nM
  TGI: 3850 nM
T-47D breast
  GI50: 1880 nM
  TGI: 3300 nM
TK-10 renal
  GI50: 3980 nM
  TGI: 13000 nM
U251 glioblastoma
  GI50: 2010 nM
  TGI: 3480 nM
UACC-257 melanoma
  GI50: 25.7 nM
  TGI: 164 nM
UACC-62 melanoma
  GI50: 22.6 nM
  TGI: 285 nM
UO-31 renal
  GI50: 15800 nM
  TGI: 29500 nM

## C[C@@H]1COCCN1c1cc(C2([S@](C)(=N)=O)CC2)nc(-c2ccnc3[nH]ccc23)n1
786-0 renal
  GI50: 718 nM
  TGI: 4250 nM
A498 renal
  GI50: 398 nM
  TGI: 1950 nM
A549 NSCLC
  GI50: 3100 nM
  TGI: 21200 nM
ACHN renal
  GI50: 826 nM
  TGI: 6370 nM
BT-549 breast
  GI50: 573 nM
  TGI: 3510 nM
CAKI-1 renal
  GI50: 2740 nM
  TGI: 22800 nM
CCRF-CEM leukemia
  GI50: 337 nM
  TGI: 1400 nM
COLO 205 colon
  GI50: 7720 nM
  TGI: 83700 nM
DU-145 prostate
  GI50: 2800 nM
  TGI: > 100000 nM
EKVX NSCLC
  GI50: 6530 nM
  TGI: 59900 nM
HCC-2998 colon
  GI50: 231 nM
  TGI: 1600 nM
HCT-116 colon
  GI50: 1390 nM
  TGI: 14600 nM
HCT-15 colon
  GI50: 1900 nM
  TGI: 56100 nM
HL-60(TB) leukemia
  GI50: 666 nM
  TGI: 1910 nM
HOP-62 NSCLC
  GI50: 1100 nM
  TGI: 4390 nM
HOP-92 NSCLC
  GI50: 1160 nM
  TGI: 6770 nM
HS 578T breast
  GI50: 336 nM
  TGI: 1720 nM
HT29 colon
  GI50: 3170 nM
  TGI: 9920 nM
IGROV1 ovarian
  GI50: 1870 nM
  TGI: 21600 nM
K-562 leukemia
  GI50: 1630 nM
  TGI: 3700 nM
KM12 colon
  GI50: 734 nM
  TGI: 16500 nM
LOX IMVI melanoma
  GI50: 2340 nM
  TGI: 12600 nM
M14 melanoma
  GI50: 896 nM
  TGI: 3260 nM
MALME-3M melanoma
  GI50: 3870 nM
  TGI: 18000 nM
MCF7 breast
  GI50: 431 nM
  TGI: > 100000 nM
MDA-MB-231 breast
  GI50: 6100 nM
  TGI: > 100000 nM
MDA-MB-435 melanoma
  GI50: 3460 nM
  TGI: > 100000 nM
MDA-MB-468 breast
  GI50: 2900 nM
  TGI: 15500 nM
MOLT-4 leukemia
  GI50: 342 nM
  TGI: 1520 nM
NCI-H226 lung
  GI50: 16300 nM
  TGI: 59300 nM
NCI-H23 lung
  GI50: 792 nM
  TGI: 2400 nM
NCI-H322M lung
  GI50: 815 nM
  TGI: 4990 nM
NCI-H460 NSCLC
  GI50: 455 nM
  TGI: 8990 nM
NCI-H522 lung
  GI50: 12800 nM
  TGI: 81600 nM
NCI/ADR-RES ovarian
  GI50: 25400 nM
  TGI: > 100000 nM
OVCAR-3 ovarian
  GI50: 1940 nM
  TGI: 23800 nM
OVCAR-4 ovarian
  GI50: 2030 nM
  TGI: 31000 nM
OVCAR-8 ovarian
  GI50: 3770 nM
  TGI: 16300 nM
PC-3 prostate
  GI50: 6970 nM
  TGI: > 100000 nM
RPMI-8226 leukemia
  GI50: 694 nM
  TGI: 2260 nM
RXF 393 renal
  GI50: 1280 nM
  TGI: 3930 nM
SF-268 CNS
  GI50: 3350 nM
  TGI: 46300 nM
SF-295 CNS
  GI50: 1970 nM
  TGI: 7740 nM
SF-539 CNS
  GI50: 640 nM
  TGI: 2690 nM
SK-MEL-28 melanoma
  GI50: 18300 nM
  TGI: 81800 nM
SK-MEL-5 melanoma
  GI50: 5240 nM
  TGI: 18700 nM
SK-OV-3 ovarian
  GI50: 1590 nM
  TGI: 10500 nM
SN12C renal
  GI50: 4380 nM
  TGI: 55900 nM
SNB-19 CNS
  GI50: 4390 nM
  TGI: 43400 nM
SNB-75 CNS
  GI50: 3510 nM
  TGI: > 100000 nM
SR leukemia
  GI50: 32.2 nM
  TGI: 125 nM
SW-620 colon
  GI50: 4880 nM
  TGI: > 100000 nM
T-47D breast
  GI50: 18700 nM
  TGI: > 100000 nM
TK-10 renal
  GI50: 412 nM
  TGI: 2420 nM
U251 glioblastoma
  GI50: 3000 nM
  TGI: 41800 nM
UACC-257 melanoma
  GI50: 22400 nM
  TGI: > 100000 nM
UACC-62 melanoma
  GI50: 2430 nM
  TGI: 36800 nM
UO-31 renal
  GI50: 2820 nM
  TGI: 25500 nM
